# Results from PubChem BioAssay (NCI).
# Values joined by “and” are separate entries in the source; they are usually repeats but may differ in a detail not shown here. Equal entries are not always repeated.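 Protocol summary: plate cells (96-well), add compound at 5 concentrations, incubate 48 h, interpolate endpoints linearly. GI50 = concentration required for 50% inhibition of growth. TGI: total growth inhibition.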
# Key:
# Assay in all cases: inhibition of tumour cell growth, NCI panel, 48 h
# NCI-H522 lung = system: NCI-H522 lung
# TK-10 renal = system: TK-10 renal
# LOX IMVI melanoma = system: LOX IMVI melanoma
# SW-620 colon = system: SW-620 colon
# K-562 leukemia = system: K-562 leukemia
# U251 CNS = system: U251 CNS
# HCT-116 colon = system: HCT-116 colon
# HT29 colon = system: HT29 colon
SMILES,GI50 (NCI-H522 lung),TGI (NCI-H522 lung),GI50 (TK-10 renal),TGI (TK-10 renal),GI50 (LOX IMVI melanoma),TGI (LOX IMVI melanoma),GI50 (SW-620 colon),TGI (SW-620 colon),GI50 (K-562 leukemia) [µM],TGI (K-562 leukemia) [µM],GI50 (U251 CNS),TGI (U251 CNS),GI50 (HCT-116 colon),TGI (HCT-116 colon),GI50 (HT29 colon) [µM],TGI (HT29 colon) [µM]
OCCN(CCO)N=Nc1ccc(-c2nc3ccccc3[nH]2)cc1,50.2 µM,> 100 µM,36.1 µM,> 100 µM,12.5 µM,25.5 µM,18.9 µM,38.4 µM,24,> 100,17.6 µM,37.4 µM,25.3 µM,64.3 µM,,
O=C(Nc1ccc(Cl)c([N+](=O)[O-])c1)Nc1nc2ccccc2s1,2.44 µM,7.33 µM,4.26 µM,12.8 µM,3.98 µM,21 µM,3.38 µM,14.5 µM,4.15,> 100,3.36 µM,13.4 µM,3.57 µM,14.9 µM,3.51,11.6
COc1ccc(C(=O)Cn2c(C(=O)c3ccc(OC)cc3)nc3ccccc32)cc1,2.19 µM,> 100 µM,4.8 µM,> 100 µM,6.42 µM,> 100 µM,0.816 µM,> 100 µM,0.483,> 100,3.16 µM,> 100 µM,2.36 µM,> 100 µM,0.576,> 100
COc1cc(/C=C(/C)[N+](=O)[O-])ccc1O,0.46 µM and 0.282 µM,1.4 µM and 1.09 µM,1.97 µM and 1.48 µM,3.57 µM and 2.82 µM,1.59 µM and 1.58 µM,3.27 µM and 3 µM,1.69 µM and 1.57 µM,3.67 µM and 3.11 µM,1.47,> 100,1.77 µM and 1.87 µM,3.79 µM and 3.7 µM,1.65 µM and 1.71 µM,3.12 µM and 3.29 µM,2.63,6.09
N#CC1=C(N)Oc2cc3c(cc2C1c1cccs1)OCO3 (stereo unspecified),0.19 µM,0.639 µM,1.86 µM,> 67.8 µM,0.679 µM,> 61.3 µM,0.356 µM,> 100 µM,0.205,> 100,0.397 µM,31.9 µM,0.407 µM,> 62.3 µM,0.377,15.2
Cc1ccc(Nc2nc(NCCO)c3ccccc3n2)cc1C,4.68 µM,18 µM,11.1 µM,23.3 µM,3.55 µM,12.4 µM,4.03 µM,15.7 µM,3.19,13,2.75 µM,12.1 µM,3.95 µM,14.5 µM,3.25,10.6
CN(N=O)C(=O)Nc1c[nH]c(=O)[nH]c1=O,,> 100 µM,,> 100 µM,,> 100 µM,,> 100 µM,,> 100,,> 100 µM,,> 100 µM,,> 100
Oc1ccc2ccccc2c1C=NCCCN=Cc1c(O)ccc2ccccc12,4.91 µM,41.5 µM,24.4 µM,> 100 µM,6.89 µM,19.4 µM,12.1 µM,61.8 µM,,,3.8 µM,15.2 µM,10 µM,31.4 µM,19.7,63.3
